In ChEMBL document CHEMBL1201862, “PubChem BioAssay data set” (2004):
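All cell lines were grown in 96-well plates and treated with compound for 48 hours. At the GI50, growth is halved.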 Active and inactive are the calls of the source. No stated cut-off is given here; in the data, active = GI50 up to about 1.1 µM and inactive = higher.

Columns and labels:
Test in all cases: DTP human tumour cell line panel, 48 h
MDA-N = system: MDA-N
Malme-3M = system: Malme-3M
SF-268 = system: SF-268
OVCAR-4 = system: OVCAR-4
K562 = system: K562
COLO 205 = system: COLO 205
M14 = system: M14
HCT-15 = system: HCT-15
MOLT-4 = system: MOLT-4
SK-MEL-5 = system: SK-MEL-5
SR = system: SR
PC-3 = system: PC-3
SN12C = system: SN12C
IGROV-1 = system: IGROV-1
OVCAR-3 = system: OVCAR-3
OVCAR-5 = system: OVCAR-5
Hs-578T = system: Hs-578T
RXF 393 = system: RXF 393
CCRF-CEM = system: CCRF-CEM
SNB-19 = system: SNB-19
DU-145 = system: DU-145
TK-10 = system: TK-10
HCT-116 = system: HCT-116
SNB-75 = system: SNB-75
786-0 = system: 786-0
NCI-H23 = system: NCI-H23
LOX IMVI = system: LOX IMVI
HOP-62 = system: HOP-62
KM12 = system: KM12
SF-539 = system: SF-539
RPMI-8226 = system: RPMI-8226
SK-MEL-2 = system: SK-MEL-2
EKVX = system: EKVX
SW-620 = system: SW-620
UO-31 = system: UO-31
CAKI-1 = system: CAKI-1
NCI-H226 = system: NCI-H226
NCI/ADR-RES = system: NCI/ADR-RES
ACHN = system: ACHN
UACC-257 = system: UACC-257
UACC-62 = system: UACC-62
A549 = system: A549
OVCAR-8 = system: OVCAR-8
SK-MEL-28 = system: SK-MEL-28
MDA-MB-231 = system: MDA-MB-231
HCC 2998 = system: HCC 2998
BT-549 = system: BT-549
HT-29 = system: HT-29
HOP-92 = system: HOP-92
MDA-MB-435 = system: MDA-MB-435
NCI-H522 = system: NCI-H522
U-251 = system: U-251
NCI-H460 = system: NCI-H460
T47D = system: T47D

Cc1ccc(S(=O)(=O)c2[nH]cc(/C(=C\C3CCCCC3)[N+](=O)[O-])c2C2CCCCC2)cc1
GI50 (MDA-N): 301 nM (active)
GI50 (Malme-3M): 564 nM (active)
GI50 (SF-268): 414 nM (active)
GI50 (OVCAR-4): 388 nM (active)
GI50 (K562): 251 nM (active)
GI50 (COLO 205): 250 nM (active)
GI50 (M14): 236 nM (active)
GI50 (HCT-15): 199 nM
GI50 (MOLT-4): 324 nM (active)
GI50 (SK-MEL-5): 318 nM (active)
GI50 (SR): 281 nM (active)
GI50 (PC-3): 472 nM (active)
GI50 (SN12C): 211 nM (active)
GI50 (IGROV-1): 314 nM (active)
GI50 (OVCAR-3): 270 nM (active)
GI50 (OVCAR-5): 822 nM (active)
GI50 (Hs-578T): 324 nM (active)
GI50 (RXF 393): 196 nM (active)
GI50 (CCRF-CEM): 272 nM (active)
GI50 (SNB-19): 1750 nM (inactive)
GI50 (DU-145): 596 nM (active)
GI50 (TK-10): 544 nM (active)
GI50 (HCT-116): 216 nM (active)
GI50 (SNB-75): 1820 nM (inactive)
GI50 (786-0): 199 nM (active)
GI50 (NCI-H23): 542 nM (active)
GI50 (LOX IMVI): 202 nM (active)
GI50 (HOP-62): 1410 nM (inactive)
GI50 (KM12): 1790 nM (inactive)
GI50 (SF-539): 462 nM (active)
GI50 (RPMI-8226): 251 nM (active)
GI50 (SK-MEL-2): 377 nM (active)
GI50 (EKVX): 354 nM (active)
GI50 (SW-620): 376 nM (active)
GI50 (UO-31): 493 nM (active)
GI50 (CAKI-1): 220 nM (active)
GI50 (NCI-H226): 832 nM (active)
GI50 (NCI/ADR-RES): 426 nM (active)
GI50 (ACHN): 366 nM (active)
GI50 (UACC-257): 393 nM (active)
GI50 (UACC-62): 234 nM (active)
GI50 (A549): 1710 nM (inactive)
GI50 (OVCAR-8): 368 nM (active)
GI50 (SK-MEL-28): 802 nM (active)
GI50 (MDA-MB-231): 217 nM (active)
GI50 (HCC 2998): 682 nM (active)
GI50 (BT-549): 280 nM (active)
GI50 (HT-29): 497 nM (active)
GI50 (HOP-92): 292 nM (active)
GI50 (MDA-MB-435): 398 nM (active)
GI50 (NCI-H522): 208 nM (active)
GI50 (U-251): 653 nM (active)
GI50 (NCI-H460): 1220 nM (inactive)
GI50 (T47D): 303 nM (active)
